Test results as given in patent US20180185360A1, “CGRP RECEPTOR ANTAGONIST COMPOUNDS FOR TOPICAL TREATMENT OF SKIN DISORDERS” (GALDERMA RESEARCH & DEVELOPMENT, priority 2015, published 2018).

Legend:
[1] = clinical development discontinued; cited from earlier work
[2] = tested on: Dermatophagoides farinae (Der f)-induced AD-like skin inflammation; assay: Der f-induced atopic dermatitis mouse model; type: in vivo, Balb/c mice
Experimental: Der f has been purchased from Greer Laboratories and a Der f solution has been prepared in 70% DMSO in MilliQ water. 375 μg of Der f has been applied during 7 weeks on the left ear of mice. Compounds to be tested were applied every day of the week except during the weekend, on the Der f treated ear from week 4 until day 44. • 1.2. Compounds • 1.2.1. MK3207 (CD10192/41) MK3207 (CD10192/41) has been provided by Galderma and 3% of MK3207 (CD10192/41) solutions in ethanol have been prepared. • 1.2.2. Triamcinolone Acetonide Triamcinolone acetonide has been chosen as positive control for the Der f model. 0.01% of triamcinolone acetonide solution in ethanol has been used. • 1.2.3. Ethanol Ethanol 100 has been chosen as a vehicle to solubilize the compounds. • 1.3. Mice Balb/c mice strain has been used for the study. These animals have been obtained from controlled breeding and were specific pathogen free. The animals have been provided by Janvier SAS, France. • 1.4. Protocol AD-like lesions have been induced by topical application of 375 μl of Der f solution on each side of the left ear for 7 weeks at day 1, day 8, day 15, day 22, day 29, day 36 and day 43. Mice have been treated from day 20 to day 43 five days by week with the different solutions administrated by the topical route. Measurement of ear swelling has been monitored 24 hours after each allergen application. After day 19, ear swelling has been daily measured before compound application. After mouse euthanasia, at Day 44 the left ear has been collected and has been washed in ethanol 70% and has been rinsed in PBS. Skin biopsies of the left ear, have then been collected for cytokines profile quantification with Luminex technique and for the quantification of the eosinophil peroxidase thanks to the ELISA method. Draining lymph nodes have been collected and cultivated a whole night restimulated or not with 0.5 mg/ml of Der f extract before quantifying the number of Der f specific lymphocytes T producing INFγ.

[3] = tested on: αCGRP-induced skin blood perfusion increase; assay: CGRP-induced mice model of vasodilatation (Laser Doppler skin blood perfusion, right ear); type: in vivo, BALB/c mice; conditions: for decrease of the CGRP flush (AUC skin blood perfusion 0 to 15 min): topical, 90 min prior to αCGRP 20 μg/kg i.v.
Experimental: (§1) This study has been conducted on BALB/c mice, 5 mice per group have been used.
Body temperature was maintained at 35° C.-37° C. using an automated heating pad. Images were obtained from Laser Doppler perfusion imaging PIM3 (Perimed, France). For each mouse, the skin blood perfusion was evaluated every minute on the right ear. The laser beam of the PIM3 scanned a skin area of 2×2 cm. Prior to the treatment, 2 scans were performed.
The duration of the recording was 22 minutes in total.
The blood perfusion is mapped as colour coded images at intervals of 1 min. For each mouse ear, the area corresponding to the internal part of the ear is defined and adjusted for each image. From this selected area, we take the highest of the first two images as the background of blood perfusion (I ref). The background value is then subtracted from the next images of the kinetic.
The software calculates the erythematous surface (S) and the mean of the blood perfusion intensity (I) in this surface for the region of interest for all the images. […] For each time of kinetic, the relative area of blood perfusion is calculated as follow: Relative area of perfusion=(I/I ref)×S

[4] = Skin concentration two hours after single topical application on the mouse ear; type: in vivo, BALB/c mice; conditions: 0.003% to 3%
Source text: as §1
At the end of the scan, blood is collected from the abdominal artery on anesthetized animals. The animals are then euthanatized and the treated ear collected and weighted. Plasma and ear are snapped frozen.

[5] = tested on: imiquimod (Aldara) induced psoriasiform skin inflammation; assay: Imiquimod induced psoriasiform mice model; type: in vivo, Balb/c mice; conditions: CD10192/41 at 2% topical twice daily, 2 h before and 6 h after Aldara
Experimental: Imiquimod psoriasiform model has been induced by daily topical application of Aldara (3.18 mg of imiquimod) for 3 or 7 days on the shaved back skin of Balb/c mice. The pharmacodynamic analysis were performed by using a transcriptional analysis at D4, a histological analysis at D4 and D8, a cells analysis at D8 and a Cytokines analysis at D8. • 1.2. Compounds • 1.2.1. Imiquimod
Imiquimod is sold under the name Aldara™ 5% by 3M-Pharmaceutical. 63.5 mg of Aldara cream is applied on the back skin of the mice, representing 3.2 mg of active compound. • 1.2.2. MK3207 (CD10192/41)
MK3207 compound is dissolved in PG/Ethanol 96 (30/70) and applied twice daily 2 h 00 before and 6 h 00 after Aldara treatment. • 1.2.3. Vehicles
PG/Ethanol (30/70) is used as a vehicle. • 1.2.4. Positive Control
CD0153F (Betamethasone valerate) at 0.01% (0.210 mM) in acetone by topical route is used as positive control. • 1.3. Mice
Balb/c mice strain has been used for the study. These animals have been obtained from controlled breeding and were specific pathogen free. The animals have been provided by Janvier SAS, France. • 1.4. Protocol […]
At day 4 skin biopsies were collected for quantifying gene expression of the inflammatory response via RT-PCR and for measuring epidermis thickness via histological stained slides (HE). […]

[6] = MK3207 3% topical, day 44, ear skin biopsies, Luminex

SMILES | toxicity associated with oral use [1] | eosinophil peroxidase production (EPX) ([2]; MK3207 3% topical, day 44, ear skin biopsies, ELISA) | production of IL17A [2, 6] | production of IL-4 [2, 6] | production of IL-5 [2, 6] | production of IL-13 [2, 6] | production of TNFα [2, 6] | production of IFNγ by lymphocyte T cells ([2]; draining lymph nodes restimulated with Der f, MK3207 3%, triamcinolone acetonide 0.01% topical) | ear swelling ([2]; topical MK3207, as soon as day 27 with a similar effect until day 43) | ear swelling / ear edema ([2]; topical in ethanol, MK3207 3% (day 44), triamcinolone acetonide 0.01%) | decrease of the CGRP flush (AUC skin blood perfusion 0 to 15 min) ([3]; MK3207 0.003% in ethanol, NS, p=0.2259) [%] | decrease of the CGRP flush (AUC skin blood perfusion 0 to 15 min) ([3]; MK3207 0.03% in ethanol, NS, p=0.0567) [%] | decrease of the CGRP flush (AUC skin blood perfusion 0 to 15 min) ([3]; MK3207 0.3% in ethanol, p=0.0112) [%] | decrease of the CGRP flush (AUC skin blood perfusion 0 to 15 min) ([3]; MK3207 3% in ethanol, p=0.0083) [%] | inhibition of αCGRP-induced increase in skin blood perfusion, dose dependence ([3]; topical 0.003% to 3%, 90 minutes prior to αCGRP, p=0.0017) | detection in skin samples [4] | reduction of the epidermis thickness ([5]; day 4) [%] | reduction of the number of IL17-production within the γδ T cells ([5]; day 8) [%]
NCCCC[C@H](NC(=O)[C@@H](Cc1cc(Br)c(O)c(Br)c1)NC(=O)N1CCC(N2Cc3ccccc3NC2=O)CC1)C(=O)N1CCN(c2ccncc2)CC1 [olcegepant, reference compound] | severe hepatotoxicity | – | – | – | – | – | – | – | – | – | – | – | – | – | – | – | – | –
O=C(CN1C(=O)C2(CCCC2)NC[C@H]1c1cc(F)cc(F)c1)Nc1ccc2c(c1)C[C@@]1(C2)C(=O)Nc2ncccc21 [MK3207, 2-[(8R)-8-(3,5-difluorophenyl)-10-oxo-6,9-diazaspiro[4.5]dec-9-yl]-N-[(2R)-2′-oxo-1,1′,2′,3-tetrahydrospiro[indene-2,3′-pyrrolo[2,3-b]pyridin]-5-yl]acetamide] | severe hepatotoxicity | reduction | significantly reduced | significantly reduced | significantly reduced | significantly reduced | significantly reduced | decrease | decrease | decrease | 31 | 49 | 70 | 80 | inhibited this increase in a dose-dependent manner | detected in skin samples at all doses tested | 33 | 55
O=C(N[C@@H]1CC[C@@H](c2cccc(F)c2F)CN(CC(F)(F)F)C1=O)N1CCC(n2c(=O)[nH]c3ncccc32)CC1 [telcagepant, reference compound] | severe hepatotoxicity | – | – | – | – | – | – | – | – | – | – | – | – | – | – | – | – | –
